In paper PMC12142871 (BMC Psychiatry, 2025):

Legend:
[1] = Therapeutic drug monitoring: steady-state trough serum sertraline concentration
[2] = cited from earlier work
[3] = dose-response meta-analysis; cited from earlier work
[4] = Female, Adults, median (1st quartile, 3rd quartile), listed as sertraline

C/D (dose-adjusted serum concentration) ([1]; Adults, median (1st quartile, 3rd quartile)): 0.50 (0.33, 0.71) (ng/ml)/(mg/d) | C/D (dose-adjusted serum concentration) ([1]; Adults, median (1st quartile, 3rd quartile), listed as sertraline): 0.50 (ng/ml)/(mg/d) | C/D (dose-adjusted serum concentration) ([1]; Children and Adolescents, median (1st quartile, 3rd quartile)): 0.44 (0.31, 0.67) (ng/ml)/(mg/d) | C/D (dose-adjusted serum concentration) ([1]; Children and Adolescents, median (1st quartile, 3rd quartile), listed as sertraline): 0.44 (ng/ml)/(mg/d) | Serum Concentration ([1]; Female, Adults, median (1st quartile, 3rd quartile)): 62.3 (33.5, 102.0) ng/mL | C/D [1, 4]: 0.51 (ng/ml)/(mg/d) | Serum Concentration [1, 4]: 62.3 ng/mL | Serum Concentration ([1]; Female, Children and Adolescents, median (1st quartile, 3rd quartile)): 53.2 (32.4, 86.2) ng/mL | Serum Concentration ([1]; Female, Total, median (1st quartile, 3rd quartile)): 57.0 (32.9, 95.5) ng/mL | Serum Concentration ([1]; Male, Adults, median (1st quartile, 3rd quartile)): 55.8 (35.0, 86.0) ng/mL | Serum Concentration ([1]; Male, Adults, median (1st quartile, 3rd quartile), listed as sertraline): 55.8 ng/mL | Serum Concentration ([1]; Male, Children and Adolescents, median (1st quartile, 3rd quartile)): 41.8 (23.9, 65.5) ng/mL | Serum Concentration ([1]; Male, Total, median (1st quartile, 3rd quartile)): 52.4 (31.6, 81.3) ng/mL | C/D (dose-adjusted serum concentration) ([1]; Total, median (1st quartile, 3rd quartile)): 0.47 (0.32, 0.69) (ng/ml)/(mg/d) | Coefficient of variation (CV) of C/D value ([1]; adults, interindividual): 61.1% | Coefficient of variation (CV) of sertraline concentration ([1]; adults, interindividual): 68.0% | Coefficient of variation (CV) of C/D value ([1]; younger patients (children and adolescents), interindividual): 80.6%
SMILES: CN[C@H]1CC[C@@H](c2ccc(Cl)c(Cl)c2)c2ccccc21 [Sertraline]
reference range of serum concentration ([2]; children and adolescents, TDM-VIGIL study): 66 to 76 ng/mL | coefficient of variation of concentration ([2]; interindividual pharmacokinetic variability): 59% | effective daily range [3]: 50 to 150 mg
